In US20260166128A1, “HUMAN AMYLIN ANALOG, AND DERIVATIVE THEREOF AND USE THEREOF” (priority 2022, published 2026):
Numbered stars: 1 amine (or outer) side, 2 acyl side, 3 side chain; on linkers, the order of the positions; unused ones are H or OH. Bridge positions count the residues as written; N and C are the ends. Square brackets hold non-standard residues; d marks the D form. Side chains are listed from the residue outwards. Peptide text beside a SMILES is read from it. * marks the point of attachment. C20 diacid = O=C(O)CCCCCCCCCCCCCCCCCCC(=O)*; C18 diacid = O=C(O)CCCCCCCCCCCCCCCCC(=O)*; γGlu = O=C(O)[C@H](CCC(=O)[*:2])N[*:1]; Hyp = O=C(O)[C@@H]1C[C@@H](O)CN1; AEEA = NCCOCCOCC(=O)O

Key:
human amylin receptor = molecular target: T1, human amylin receptor (Homo sapiens, UniProt O60896+P30988); experiment: Luciferase assay of amylin derivatives in amylin receptor/CRE-luc CHO cell line; assay type: cell-based; settings: CHO-K1/Ga15/AMY3 CRE-luc cells, 24 hours incubation, F12 medium containing 10% FBS; read-out: EC50
T1 construct: host or cells: CHO-K1/Ga15/AMY3 cells, further stably transfected with a CRE-luciferase plasmid
T1 sequence (P30988 25-474): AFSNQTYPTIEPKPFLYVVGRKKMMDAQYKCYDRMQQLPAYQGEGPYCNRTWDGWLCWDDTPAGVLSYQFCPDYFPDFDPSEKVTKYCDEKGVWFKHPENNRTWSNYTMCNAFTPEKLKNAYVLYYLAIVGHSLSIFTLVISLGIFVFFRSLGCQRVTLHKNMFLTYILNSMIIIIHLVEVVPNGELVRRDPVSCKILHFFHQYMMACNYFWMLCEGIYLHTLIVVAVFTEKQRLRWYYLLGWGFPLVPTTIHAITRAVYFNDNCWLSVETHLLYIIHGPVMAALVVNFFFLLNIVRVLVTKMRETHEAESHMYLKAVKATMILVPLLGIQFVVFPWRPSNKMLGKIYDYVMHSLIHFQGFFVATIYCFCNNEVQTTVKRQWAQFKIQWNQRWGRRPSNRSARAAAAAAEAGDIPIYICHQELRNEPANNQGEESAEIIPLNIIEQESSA
T1 sequence (O60896 24-148 partner): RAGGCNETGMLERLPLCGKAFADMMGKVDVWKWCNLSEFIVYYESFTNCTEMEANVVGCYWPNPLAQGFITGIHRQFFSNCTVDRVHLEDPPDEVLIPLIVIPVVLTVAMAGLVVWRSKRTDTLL
Method: The experiment was intended to detect the activity or efficacy of the amylin derivatives on a human amylin receptor in vitro by luciferase assay.
50 μL of growth medium (F12 medium containing 10% FBS) was added into each well of a white 96-well plate, and the stably transfected amylin/CRE-lue CHO cells were inoculated into the white 96-well plate at a density of about 20,000 cells/well for activity determination.

[1] = assay type: physicochemical
Method: The penicillin bottle after covering was placed in a stability test box at 40° C. Before testing, a sample was centrifuged at 10,000 rpm and 4° C. for 3 minutes, and a supernatant was taken and added into a liquid-phase sample injection bottle. The sample was detected by the liquid phase method in Example 3.

[2] = Freeze-thaw stability of derivatives (freeze-thaw yield by liquid chromatography); assay type: physicochemical; settings: for Dissolution property: appearance after dissolution at 0.2 mg/ml in 20 mM phosphate buffer solution (PB) (pH 7.0); for Freeze storage property: appearance after overnight storage at −20° C. and thawing to room temperature, 0.2 mg/ml in 20 mM PB (pH 7.0); for Freeze storage yield: concentration of polypeptide after freezing and thawing / concentration before, by liquid chromatography, −20° C. overnight
Summary of the method: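 Freeze-thaw yield is the ratio of peptide concentration after versus before one overnight −20° C freeze and room-temperature thaw, both quantified by RP-HPLC of supernatant after centrifugation. Samples were 0.2 mg/ml freeze-dried derivative in 20 mM PB, pH 7.0.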

[3] = Weight loss efficacy of derivatives in SD rats (Example 5); assay type: in vivo, SD (Sprague Dawley) rats; settings: experimental group B, subcutaneous, 30 nmol/kg
Source text: SD (Sprague Dawley) rats weighing 200 g to 250 g were selected for this experimental study. Before the experiment, the rats arrived for at least 10 days to 14 days to adapt to the experimental environment. During this period, the rats were fed for two weeks in a reversed light/dark stage (meaning that the light was turned off during the day and turned on during the night) after arrival, and were fed separately in the first week of arrival to ensure accurate data and high test sensitivity, and the rats were free to obtain food and water during the whole adaptation period and experimental period. There were an experimental group [NT]5 and A6, and an experimental group B: B1, B2, B3, B4 and B5, with 5 to 8 rats in each treatment group of the derivative, and the rats in each group were subcutaneously administered with a derivative or a solvent by a dosage of 30 nmol/kg. The administration time of each group was recorded. After administration, the rats were put back into their cages in which the rats could get food and water. Food consumption and weight changes of the rats were recorded every 24 hours by online recording or manual recording. Weight and food intake changes of the SD rats in each group were as shown in FIG. 2A to FIG. 2D, Table 9 and Table 10.

SMILES	EC50 (human amylin receptor) [nM]	thermal stability [1]	Dissolution property [2]	Freeze storage property [2]	Freeze storage yield [2] [%]	Weight change rate at 48th hour [3]
CC[C@H](C)[C@H](NC(=O)[C@@H]1CCCN1C(=O)CNC(=O)[C@H](CC(C)C)NC(=O)[C@H](CC(N)=O)NC(=O)[C@H](CC(N)=O)NC(=O)[C@H](CO)NC(=O)[C@H](CO)NC(=O)[C@H](Cc1c[nH]cn1)NC(=O)[C@H](CCCNC(=N)N)NC(=O)[C@H](CC(C)C)NC(=O)[C@H](Cc1ccccc1)NC(=O)[C@H](CC(=O)O)NC(=O)[C@H](C)NC(=O)[C@H](CC(C)C)NC(=O)[C@H](CCCNC(=N)N)NC(=O)[C@H](CCC(N)=O)NC(=O)[C@@H](NC(=O)[C@H](C)NC(=O)[C@@H]1CSSC[C@H](NC(=O)[C@@H](N)CCCCNC(=O)CC[C@H](NC(=O)CCCCCCCCCCCCCCCCCCC(=O)O)C(=O)O)C(=O)N[C@@H](CC(N)=O)C(=O)N[C@@H]([C@@H](C)O)C(=O)N[C@@H](C)C(=O)N[C@@H]([C@@H](C)O)C(=O)N1)[C@@H](C)O)C(=O)N[C@@H](CC(C)C)C(=O)N1CCC[C@H]1C(=O)N1CCC[C@H]1C(=O)N[C@H](C(=O)N[C@@H](CC(N)=O)C(=O)N[C@H](C(=O)NCC(=O)N[C@@H](CO)C(=O)N[C@@H](CC(N)=O)C(=O)N[C@H](C(=O)N1C[C@H](O)C[C@H]1C(N)=O)[C@@H](C)O)C(C)C)[C@@H](C)O [PD070] (H-K([γGlu-C20 diacid])CNTATCATQRLADFLRHSSNNLGPILPPTNVGSNT[Hyp]-NH2; disulfide 2-7)	0.038	extremely low decrease percentage of protein concentration				
CC[C@H](C)[C@H](NC(=O)[C@@H]1CCCN1C(=O)CNC(=O)[C@H](CC(C)C)NC(=O)[C@H](CC(N)=O)NC(=O)[C@H](CC(N)=O)NC(=O)[C@H](CO)NC(=O)[C@H](CO)NC(=O)[C@H](Cc1c[nH]cn1)NC(=O)[C@H](CCCNC(=N)N)NC(=O)[C@H](CC(C)C)NC(=O)[C@H](Cc1ccccc1)NC(=O)[C@H](CC(=O)O)NC(=O)[C@H](C)NC(=O)[C@H](CC(C)C)NC(=O)[C@H](CCCNC(=N)N)NC(=O)[C@H](CCC(N)=O)NC(=O)[C@@H](NC(=O)[C@H](C)NC(=O)[C@@H]1CSSC[C@H](NC(=O)[C@H](CCCCN)NC(=O)COCCOCCNC(=O)COCCOCCNC(=O)CC[C@H](NC(=O)CCCCCCCCCCCCCCCCCCC(=O)O)C(=O)O)C(=O)N[C@@H](CC(N)=O)C(=O)N[C@@H]([C@@H](C)O)C(=O)N[C@@H](C)C(=O)N[C@@H]([C@@H](C)O)C(=O)N1)[C@@H](C)O)C(=O)N[C@@H](CC(C)C)C(=O)N1CCC[C@H]1C(=O)N1CCC[C@H]1C(=O)N[C@H](C(=O)N[C@@H](CC(N)=O)C(=O)N[C@H](C(=O)NCC(=O)N[C@@H](CO)C(=O)N[C@@H](CC(N)=O)C(=O)N[C@H](C(=O)N1C[C@H](O)C[C@H]1C(N)=O)[C@@H](C)O)C(C)C)[C@@H](C)O [PD123] ({C20 diacid-γGlu-AEEA-AEEA}-KCNTATCATQRLADFLRHSSNNLGPILPPTNVGSNT[Hyp]-NH2; disulfide 2-7 (inferred))	0.068		Clear	Clear	102.11	
CC[C@H](C)[C@H](NC(=O)[C@@H]1CCCN1C(=O)CNC(=O)[C@H](CC(C)C)NC(=O)[C@H](CC(N)=O)NC(=O)[C@H](CC(N)=O)NC(=O)[C@H](CO)NC(=O)[C@H](CO)NC(=O)[C@H](Cc1c[nH]cn1)NC(=O)[C@H](CCCNC(=N)N)NC(=O)[C@H](CC(C)C)NC(=O)[C@H](Cc1ccccc1)NC(=O)[C@H](CC(=O)O)NC(=O)[C@H](C)NC(=O)[C@H](CC(C)C)NC(=O)[C@H](CCCNC(=N)N)NC(=O)[C@H](CCC(N)=O)NC(=O)[C@@H](NC(=O)[C@H](C)NC(=O)[C@@H]1CSSC[C@H](NC(=O)[C@H](CCCCN)NC(=O)COCCOCCNC(=O)CC[C@H](NC(=O)CCCCCCCCCCCCCCCCC(=O)O)C(=O)O)C(=O)N[C@@H](CC(N)=O)C(=O)N[C@@H]([C@@H](C)O)C(=O)N[C@@H](C)C(=O)N[C@@H]([C@@H](C)O)C(=O)N1)[C@@H](C)O)C(=O)N[C@@H](CC(C)C)C(=O)N1CCC[C@H]1C(=O)N1CCC[C@H]1C(=O)N[C@H](C(=O)N[C@@H](CC(N)=O)C(=O)N[C@H](C(=O)NCC(=O)N[C@@H](CO)C(=O)N[C@@H](CC(N)=O)C(=O)N[C@H](C(=O)N1C[C@H](O)C[C@H]1C(N)=O)[C@@H](C)O)C(C)C)[C@@H](C)O [PD125] ({C18 diacid-γGlu-AEEA}-KCNTATCATQRLADFLRHSSNNLGPILPPTNVGSNT[Hyp]-NH2; disulfide 2-7 (inferred))	0.01		Clear	Clear	95.59	
CC[C@H](C)[C@H](NC(=O)[C@@H]1CCCN1C(=O)CNC(=O)[C@H](CC(C)C)NC(=O)[C@H](CC(N)=O)NC(=O)[C@H](CC(N)=O)NC(=O)[C@H](CO)NC(=O)[C@H](CO)NC(=O)[C@H](Cc1c[nH]cn1)NC(=O)[C@H](CCCNC(=N)N)NC(=O)[C@H](CC(C)C)NC(=O)[C@H](Cc1ccccc1)NC(=O)[C@H](CC(=O)O)NC(=O)[C@H](C)NC(=O)[C@H](CC(C)C)NC(=O)[C@H](CCCNC(=N)N)NC(=O)[C@H](CCC(N)=O)NC(=O)[C@@H](NC(=O)[C@H](C)NC(=O)[C@@H]1CSSC[C@H](NC(=O)[C@H](CCCCN)NC(=O)COCCOCCNC(=O)COCCOCCNC(=O)CC[C@H](NC(=O)CCCCCCCCCCCCCCCCC(=O)O)C(=O)O)C(=O)N[C@@H](CC(N)=O)C(=O)N[C@@H]([C@@H](C)O)C(=O)N[C@@H](C)C(=O)N[C@@H]([C@@H](C)O)C(=O)N1)[C@@H](C)O)C(=O)N[C@@H](CC(C)C)C(=O)N1CCC[C@H]1C(=O)N1CCC[C@H]1C(=O)N[C@H](C(=O)N[C@@H](CC(N)=O)C(=O)N[C@H](C(=O)NCC(=O)N[C@@H](CO)C(=O)N[C@@H](CC(N)=O)C(=O)N[C@H](C(=O)N1C[C@H](O)C[C@H]1C(N)=O)[C@@H](C)O)C(C)C)[C@@H](C)O [PD126] ({C18 diacid-γGlu-AEEA-AEEA}-KCNTATCATQRLADFLRHSSNNLGPILPPTNVGSNT[Hyp]-NH2; disulfide 2-7 (inferred))	0.028		Clear	Clear	99.24	
CC[C@H](C)[C@H](NC(=O)[C@@H]1CCCN1C(=O)[C@H](CCCNC(=N)N)NC(=O)[C@H](CC(C)C)NC(=O)[C@H](CC(N)=O)NC(=O)[C@H](CC(N)=O)NC(=O)[C@H](CO)NC(=O)[C@H](CO)NC(=O)[C@H](Cc1c[nH]cn1)NC(=O)[C@H](CCCNC(=N)N)NC(=O)[C@H](CC(C)C)NC(=O)[C@H](Cc1ccccc1)NC(=O)[C@H](CC(=O)O)NC(=O)[C@H](C)NC(=O)[C@H](CC(C)C)NC(=O)[C@H](CCCNC(=N)N)NC(=O)[C@H](CCC(N)=O)NC(=O)[C@@H](NC(=O)[C@H](C)NC(=O)[C@@H]1CSSC[C@H](NC(=O)[C@H](CCCCN)NC(=O)CC[C@H](NC(=O)CCCCCCCCCCCCCCCCCCC(=O)O)C(=O)O)C(=O)N[C@@H](CC(N)=O)C(=O)N[C@@H]([C@@H](C)O)C(=O)N[C@@H](C)C(=O)N[C@@H]([C@@H](C)O)C(=O)N1)[C@@H](C)O)C(=O)N[C@@H](CC(C)C)C(=O)N1CCC[C@H]1C(=O)N1CCC[C@H]1C(=O)N[C@H](C(=O)N[C@@H](CC(N)=O)C(=O)N[C@H](C(=O)NCC(=O)N[C@@H](CO)C(=O)N[C@@H](CC(N)=O)C(=O)N[C@H](C(=O)N1C[C@H](O)C[C@H]1C(N)=O)[C@@H](C)O)C(C)C)[C@@H](C)O [PD158] ({C20 diacid-γGlu}-KCNTATCATQRLADFLRHSSNNLRPILPPTNVGSNT[Hyp]-NH2; disulfide 2-7 (inferred))	0.022					−8.37
